Data reported in ChEMBL document CHEMBL1142920, “Second generation of 5-ethenylbenzofuroxan derivatives as inhibitors of Trypanosoma cruzi growth: synthesis, biological evaluation, and structure-activity relationships” (Bioorg Med Chem, 2007).

Experiments:
THP-1 = assay: Cytotoxicity against human THP1 cells assessed as reduction of cell viability after 48 hrs; format: cell-based; conditions: THP-1, 48 h
Trypanosoma cruzi [1] = assay: Antitrypanosomatid activity against Trypanosoma cruzi Y epimastigotes assessed as reduction of growth after 5 days; format: functional, organism-based; conditions: 120 h
Trypanosoma cruzi [2] = assay: Antitrypanosomatid activity against Trypanosoma cruzi Tulahuen 2 epimastigotes assessed as reduction of growth after 5 days; format: functional, organism-based; conditions: Tulahuen 2, 120 h
Trypanosoma cruzi [3] = assay: Antitrypanosomatid activity against Trypanosoma cruzi CL Brener epimastigotes assessed as reduction of growth after 5 days; format: functional, organism-based; conditions: 120 h
[4] = Ratio of IC50 for human THP1 cells to IC50 for Trypanosoma cruzi Tulahuen 2 epimastigotes; format: functional, THP-1
[5] = Ratio of IC50 for human THP1 cells to IC50 for Trypanosoma cruzi Y epimastigotes; format: functional, THP-1
[6] = Ratio of IC50 for human THP1 cells to IC50 for Trypanosoma cruzi CL Brener epimastigotes; format: functional, THP-1

Structure (SMILES)	IC50 (THP-1)	IC50 (Trypanosoma cruzi [1])	IC50 (Trypanosoma cruzi [2])	IC50 (Trypanosoma cruzi [3])	Ratio IC50 [4]	Ratio IC50 [5]	Ratio IC50 [6]
[O-][n+]1onc2cc(/C=C/c3ccc(Cl)cc3)ccc21	> 200 µM	–	–	–	–	–	–
C(=C/c1ccc2nonc2c1)/c1ccc2c(c1)OCO2	> 400 µM	> 25 µM	> 25 µM	> 25 µM	<40	<40	<40
[O-][n+]1onc2cc(/C=C/c3ccc(Br)cc3)ccc21	–	5.5 µM	8.7 µM	2.5 µM	–	–	–
[O-][n+]1onc2cc(/C=C/c3cccs3)ccc21	–	12.2 µM	0.6 µM	15 µM	–	–	–
N#Cc1ccc(/C=C\c2ccc3c(c2)no[n+]3[O-])cc1	–	–	> 25 µM	–	–	–	–
O=C(O)c1ccc(/C=C\c2ccc3c(c2)no[n+]3[O-])cc1	–	–	> 25 µM	–	–	–	–
CN(C/C=C/C#CC(C)(C)C)Cc1cccc2ccccc12 [TERBINAFINE]	–	–	–	–	–	7.4	7.8
CCCC/C=C/c1ccc2c(c1)no[n+]2[O-]	–	–	19.7 µM	12.8 µM	–	–	–
[O-][n+]1onc2cc(/C=C\c3ccccc3)ccc21	–	–	–	–	8.9	7	4
[O-][n+]1onc2cc(/C=C\c3ccc4c(c3)OCO4)ccc21	120 µM	8.5 µM	2.9 µM	9 µM	41.4	14.1	13.3
C=Cc1ccc2c(c1)no[n+]2[O-]	–	–	> 25 µM	–	–	–	–
[O-][n+]1onc2cc(/C=C/c3ccccc3)ccc21	149 µM	–	–	–	–	–	–
O=[N+]([O-])c1ccc(/C=C\c2ccc3c(c2)no[n+]3[O-])cc1	–	13.5 µM	–	10.5 µM	–	–	–
N#Cc1ccc(/C=C/c2ccc3c(c2)no[n+]3[O-])cc1	–	–	> 25 µM	–	–	–	–
[O-][n+]1onc2cc(/C=C\c3ccc(Cl)cc3)ccc21	97 µM	–	–	–	–	–	–
CN(C)c1ccc(/C=C/c2ccc3nonc3c2)cc1	–	–	> 25 µM	> 25 µM	–	–	–
[O-][n+]1onc2cc(/C=C/c3cccc(F)c3)ccc21	–	7.5 µM	2.5 µM	10 µM	–	–	–
CC(=O)Nc1ccc(/C=C\c2ccc3c(c2)no[n+]3[O-])cc1[N+](=O)[O-]	–	–	24 µM	–	–	–	–

Structure (SMILES)	IC50 (THP-1)	IC50 (Trypanosoma cruzi [1])	IC50 (Trypanosoma cruzi [2])	IC50 (Trypanosoma cruzi [3])	Ratio IC50 [4]	Ratio IC50 [5]	Ratio IC50 [6]
[O-][n+]1onc2cc(/C=C/c3ccc4c(c3)OCO4)ccc21	220 µM	7.3 µM	5.3 µM	9 µM	41.5	30.1	24.4
COc1ccc(/C=C/c2ccc3c(c2)no[n+]3[O-])cc1	–	8.5 µM	8 µM	5 µM	–	–	–
[O-][n+]1onc2cc(/C=C/C3CCCCC3)ccc21	–	–	13.6 µM	–	–	–	–
CC(=O)N1CCN(c2ccc(OCC3COC(Cn4ccnc4)(c4ccc(Cl)cc4Cl)O3)cc2)CC1 (stereo not given) [KETOCONAZOLE]	–	–	–	–	4.4	4.5	8.8
O=C(O)c1ccc(/C=C/c2ccc3c(c2)no[n+]3[O-])cc1	–	–	> 25 µM	–	–	–	–
[O-][n+]1onc2cc(/C=C/c3ccc(O)cc3)ccc21	–	25 µM	10.2 µM	22.5 µM	–	–	–
O=[N+]([O-])c1ccccc1/C=C\c1ccc2c(c1)no[n+]2[O-]	–	–	24.4 µM	13.7 µM	–	–	–
[O-][n+]1onc2cc(C=Cc3ccc(Cl)cc3)ccc21	66.7 µM	9 µM	–	7.5 µM	15.5	7.4	8.9
[O-][n+]1onc2cc(/C=C/c3ccc(C(F)(F)F)cc3)ccc21	–	10 µM	–	4.5 µM	–	–	–
O=[N+]([O-])c1ccc(/C=C/c2ccc3c(c2)no[n+]3[O-])s1	–	4.5 µM	6 µM	3.5 µM	–	–	–
O=[N+]([O-])c1ccccc1/C=C/c1ccc2c(c1)no[n+]2[O-]	–	–	26.4 µM	11.1 µM	–	–	–
[O-][n+]1onc2cc(C=Cc3ccc4c(c3)OCO4)ccc21	81 µM	–	–	–	–	–	–
C(=C\c1ccc2nonc2c1)/c1ccc2c(c1)OCO2	–	> 25 µM	> 25 µM	> 25 µM	–	–	–
[O-][n+]1onc2cc(/C=C\c3ccc4nonc4c3)ccc21	–	–	> 25 µM	–	–	–	–
[O-][n+]1onc2cc(/C=C/c3ccncc3)ccc21	–	24 µM	15 µM	–	–	–	–
COC(=O)/C=C/c1ccc2c(c1)no[n+]2[O-]	–	–	> 25 µM	–	–	–	–
CN(C)c1ccc(/C=C/c2ccc3c(c2)no[n+]3[O-])cc1	> 400 µM	22 µM	15.7 µM	4.4 µM	>25	>18	>90
